Reference: the supplement of paper PMC8882468

Experiments:
Assay in all cases: CTG-3D luminescence at 96 h relative to day-0 seeding control (ratio to day 0); higher = more growth / less cytotoxicity; PDxO 3D drug screen, 96 h, CTG-3D normalised to day-0 seeding control.
HCI-012 = system: HCI-012 (organoid from a breast cancer xenograft)
HCI-003.E2 = system: HCI-003.E2 (organoid from an ER-positive breast cancer xenograft)
HCI-001 = system: HCI-001 (organoid from a triple-negative breast cancer xenograft)
HCI-024 = system: HCI-024 (organoid from a breast cancer xenograft)
HCI-027 = system: HCI-027 (organoid from a triple-negative breast cancer xenograft)

C[C@H](NC(=O)CCC(F)(F)F)C(=O)N[C@@H]1C(=O)N(CCO)c2ncccc2-c2ccccc21 [crenigacestat]
CTG-3D luminescence at 96 h
Conditions	12.5 pM	0.00025 µM	0.005 µM	0.1 µM	1 µM	10 µM	100 µM	625 fM
HCI-001, days in culture: 240	1.25	1.04	1.03	0.845	1.36	1.2	1.45	0.941
HCI-001, days in culture: 260	2.03	0.875	1.52	1.34	1.54	1.84	1.12	1.44
HCI-001, days in culture: 269	1.62	1.6	1.37	1.29	1.39	2.1	2	1.33
HCI-001, days in culture: 327	1.46	1.4	1.63	1.87	1.24	1.06	1.64	1.76
HCI-001, days in culture: 346	1.3	1.2	1.1	1.08	1.32	1.35	1.76	1.11
HCI-001, days in culture: 364	1.4	1.08	1.35	1	1.1	1.27	1.1	1.43
HCI-012, days in culture: 143	1.9	1.85	1.63	2.49	2.07	2.78	2.65	1.78
HCI-012, days in culture: 162	2.11	2.3	1.74	2.93	1.87	2.96	2.74	2.57
HCI-012, days in culture: 201	2.55	1.94	1.82	1.75	2.3	1.67	2.55	1.72
HCI-024, days in culture: 105	1.19	1.65	1.35	1.59	2.01	1.98	1.62	1.56
HCI-024, days in culture: 122	1.95	1.76	1.92	1.72	1.97	2.75	2	2.55
HCI-024, days in culture: 163	1.93	2.2	2.01	2.48	2.19	2.38	1.88	1.86
HCI-027, days in culture: 176	1.81	1.25	0.916	0.198	0.179	0.173	0.335	1.6
HCI-027, days in culture: 194	1.84	1.19	0.958	0.251	0.276	0.312	0.344	1.57
HCI-027, days in culture: 201	2.13	1.77	1.26	0.249	0.206	0.258	0.259	1.97

HCI-003.E2
Conditions	CTG-3D luminescence at 96 h
12.5 pM	2.2
0.00025 µM	2.4
0.005 µM	2.11
0.1 µM	2.4
1 µM	2.16
10 µM	2.09
100 µM	1.64
625 fM	2.07

CCN1CCN(Cc2ccc(Nc3ncc(F)c(-c4cc(F)c5nc(C)n(C(C)C)c5c4)n3)nc2)CC1 [abemaciclib]
CTG-3D luminescence at 96 h
Conditions	12.5 pM	0.00025 µM	0.005 µM	0.1 µM	1 µM	10 µM	100 µM	625 fM
HCI-001, days in culture: 240	1.34	0.584	0.704	0.897	1.37	0.799	0.012	1.47
HCI-001, days in culture: 260	2.51	1.22	1.6	1.75	1.37	1.23	0.00996	2.02
HCI-001, days in culture: 269	1.53	1.73	1.69	1.38	1.17	0.68	0.0115	1.67
HCI-001, days in culture: 327	1.46	1.41	1.87	1.58	1.36	1.12	0.0169	1.75
HCI-001, days in culture: 346	1.39	1.37	1.18	1.14	1.17	1.35	0.0179	1.19
HCI-001, days in culture: 364	1.39	1.1	1.38	0.914	0.909	1.22	0.0124	1.72
HCI-012, days in culture: 143	2.22	2.41	2.02	2.72	1.59	0.427	0.0151	1.94
HCI-012, days in culture: 162	2.88	2.54	2.02	3.34	1.83	1.5	0.0215	3.16
HCI-012, days in culture: 201	2.81	2.22	1.75	1.73	2.31	1.47	0.0218	1.65
HCI-024, days in culture: 105	1.51	1.33	1.28	1.48	1.25	0.994	0.0179	1.87
HCI-024, days in culture: 122	2.26	2.43	1.7	1.89	1.62	2.1	0.0233	3.21
HCI-024, days in culture: 163	1.45	2.01	1.71	2.45	1.94	1.38	0.0196	1.89
HCI-027, days in culture: 176	2.08	1.51	2.54	2.32	1.53	0.242	0.0171	1.82
HCI-027, days in culture: 194	1.66	1.49	1.8	1.97	1.87	1.39	0.0205	1.89
HCI-027, days in culture: 201	2.8	2.7	2.69	2.54	2.15	1.35	0.018	2.37

HCI-003.E2
Conditions	CTG-3D luminescence at 96 h
12.5 pM	2.17
0.00025 µM	2.14
0.005 µM	2.02
0.1 µM	2.27
1 µM	1.98
10 µM	0.491
100 µM	0.00596
625 fM	1.87
